Measured values as given in PMC7993833, “EDP-938, a novel nucleoprotein inhibitor of respiratory syncytial virus, demonstrates potent antiviral activities in vitro and in a non-human primate model” (PLoS Pathogens, 2021).

Tested on: RSV-B clinical isolates
Assay: RSV Virospot reduction assay (ViroClinics), RSV-B isolates from the Netherlands
Format: cell-based
Settings: human respiratory syncytial virus, 10 RSV-B strains from the Netherlands
Experimental: To further expand testing against clinical isolates, the compound was assayed against a panel of 10 RSV-A and 10 RSV-B strains mainly isolated from children of age 2–200 weeks in the Netherlands.
RSV clinical isolates were obtained from Baylor University and Medical College of Wisconsin. MOI of 0.1 used for all clinical isolates except RSV-A 629-9-2 (0.01) and RSV-B 629-24/2007 (0.0044) due to low titer. Virospot reduction assay was run by ViroClinics (Rotterdam, the Netherlands) against 20 additional RSV clinical isolates.

O=C1Nc2ccccc2C(c2ccccc2)=N[C@@H]1Nc1nnc(-c2ncc(C(F)(F)F)cc2N2CCOCC2)o1 [EDP-938]
EC50: 51 nM
